According to patent US20250144125A1 (priority 2021, published 2025):
Values joined by “and” are separate entries in the source; they are usually repeats but may differ in a detail not shown here. Identical values can stand only once. Like-named read-outs stand apart in the source and are kept apart here.

Legend:
[1] = test system: chikungunya virus (S27 strain); assay: microbe, parasite or virus in culture; format: cell-based
[2] = test system: dengue virus 2 (New Guinea C strain); assay: microbe, parasite or virus in culture; format: cell-based
[3] = test system: measles virus (CC strain); assay: microbe, parasite or virus in culture; format: cell-based
in vitro [4] = details: human
[5] = Cytotoxicity in the human norovirus replicon assay (HG23 cells); details: human, HG23 Nov replicon cells
[6] = test system: enterovirus-71 (Tainan/4643/98 strain); assay: Secondary assay (virus yield reduction / neutral red CPE) against enterovirus-71 in Vero 76 cells; format: cell-based
[7] = test system: tacaribe virus (TRVL11573 strain); assay: microbe, parasite or virus in culture; format: cell-based; details: read-out: Tacaribe virus EC50 TRVL 11573 strain
in vitro [8] = details: African green monkey
in vitro [9] = details: African green monkey, Tacaribe virus CC50 Vero
MERS-CoV (EMC strain) = assay: microbe, parasite or virus in culture; format: cell-based
[10] = test system: enterovirus-71 (Tainan/4643/98 strain); assay: organism not typed; format: cell-based
[11] = test system: human norovirus genogroup I NoV (Norwalk virus replicon) in HG23 cells; assay: Human norovirus antiviral assay, qRT PCR in HG23 NoV replicon cells; format: cell-based; details: for EC50: HG23 Nov replicon cells, qRT PCR intracellular RNA, read-out: EC50 human norovirus
[12] = test system: yellow fever virus (YFV 17D strain); assay: microbe, parasite or virus in culture; format: cell-based
Vero 76 cells = details: read-out: MERS-CoV CC50 Vero 76, MERS-CoV screen
[13] = test system: influenza A (H1N1) virus (California/07/2009 strain); assay: microbe, parasite or virus in culture; format: cell-based; details: read-out: EC50 California/07/2009 strain
MDCK cells = details: dog
in vitro [14] = details: dog, CC50 MDCK
HG23 Nov replicon cells = assay: Cytotoxicity in the human norovirus replicon assay (HG23 cells); details: read-out: CC50 human norovirus assay
HCV = details: literature; read-out: EC50 against HCV (RNA replication); cited from earlier work
[15] = Chikungunya virus, Vero 76, read-out: EC50 chikungunya virus
[16] = Dengue virus, Huh-7, read-out: EC50 dengue virus 2
[17] = Measles morbillivirus, Vero 76, read-out: Measles EC50 CC strain
[18] = read-out: Measles EC50 CC strain
[19] = Vero 76, Neutral Red (Cytopathic effect/Toxicity)
[20] = Vero 76, Visual (Virus yield reduction)
[21] = Mammarenavirus tacaribeense, Vero
[22] = Middle East respiratory syndrome-related coronavirus, Vero 76, read-out: MERS-CoV EC50 EMC strain
[23] = Vero 76, read-out: EC50 enterovirus-71
[24] = Yellow fever virus, Huh-7, read-out: Yellow fever virus EC50 YFV 17D strain
[25] = read-out: Yellow fever virus CC50 Huh7, Neutral Red, YFV screen
[26] = read-out: EC50 chikungunya virus
[27] = read-out: Yellow fever virus CC50 Huh7, Visual, YFV screen
[28] = read-out: Yellow fever virus EC50 YFV 17D strain

Compound | EC50 [1, 15] [µM] | EC50 [2, 16] [µM] | EC50 ([2]; read-out: EC50 dengue virus 2) [µM] | EC50 [3, 17] [µM] | EC50 [3, 18] | CC50 (in vitro [4]; CC50) [µM] | CC50 at 3 days [5] [µM] | EC50 [7, 21] [µM] | EC50 [7] [µM] | CC50 (in vitro [8]; Measles CC50 Vero 76) [µM] | CC50 (in vitro [9]) [µM] | CC50 (Huh7 cells; human) [µM] | EC50 [10, 23] [µM] | EC50 ([10]; read-out: EC50 enterovirus-71) [µM] | CC50 (Vero cells; African green monkey) [µM] | EC50 ([11]; Norwalk virus) [µM] | CC50 (Vero 76 cells; Neutral Red) [µM] | EC50 ([13]; Influenza A virus, H1N1, MDCK) [µM] | EC50 [13] [µM] | CC50 (Huh7 cells; [25]) [µM] | other results
CC(C)C#Cc1ncnc2c1ccn2[C@@H]1O[C@H](CO)[C@@H](O)[C@H]1O [3.1e, 6-(3-Methylbut-1-yn-1-yl)-9-β-D-ribofuranosyl-7-deazapurine] | > 100 | 3.2 | 1.8 | 3.2 | 2.4 µM | 24 | 39.5 | 1.3 | 1 | 34 | 10 | 21 | 4.2 | 4.3 | 7.3 | 0.396 | > 100 | 3.2 | 3 |  | CC50 (in vitro [4]; Yellow fever virus CC50 Huh7): 28 µM; EC50 [6, 19]: 4 µM; EC90 [6, 20]: 4.6 µM; CC50 (in vitro [8]; MERS-CoV CC50 Vero 76): > 100 µM; EC50 (MERS-CoV (EMC strain); [22]): 11 µM; EC50 (MERS-CoV (EMC strain); read-out: MERS-CoV EC50 EMC strain): 14 µM; EC50 [12, 24]: 9.2 µM
CCCC#Cc1ncnc2c1ccn2[C@@H]1O[C@H](CO)[C@@H](O)[C@H]1O [3.1f, 6-(Pent-1-yn-1-yl)-9-β-D-ribofuranosyl-7-deazapurine] |  | 0.75 | 0.96 | 3.2 | 3.7 µM | 12 | 38.7 | 1.6 | 1.8 | 63 | 10 | 11 | 2.2 | 1.6 | 9.9 | 0.002 | 110 | 2.2 | 2.3 | 31 | CC50 (in vitro [4]; Yellow fever virus CC50 Huh7): 28 µM; EC50 [6, 19]: 29 µM; EC90 [6, 20]: 17 µM; CC50 (in vitro [8]; CC50): > 100 µM; CC50 (MDCK cells): 5.1 µM; CC50 (in vitro [14]): 9.1 µM; activity against human norovirus in words [11]: low nanomolar activity and high selectivity; CC50 (Vero 76 cells; Visual): 19 µM
OC[C@H]1O[C@@H](n2ccc3c(C#Cc4ccc(Cl)cc4)ncnc32)[C@H](O)[C@@H]1O [3.1j, 6-((4-Chlorophenyl)ethynyl)-9-β-D-ribofuranosyl-7-deazapurine] | > 32 | 1.1 | 1 | 3.2 | 3.3 µM | 12 | 38.6 | > 8.6 | > 6.5 | 12 | 8.6 | 13 | > 32 | > 31 | 6.5 | 0.022 |  | > 2.4 | > 3.2 | 5 | EC50 [1, 26]: > 23 µM; CC50 (in vitro [8]; MERS-CoV CC50 Vero 76): 32 µM; EC50 (MERS-CoV (EMC strain); [22]): > 32 µM; CC50 (Huh7 cells; [27]): 28 µM; CC50 (MDCK cells): 3.2 µM; CC50 (in vitro [14]): 2.4 µM; EC50 [12, 24]: 1.2 µM; EC50 [12, 28]: 0.8 µM
OC[C@H]1O[C@@H](n2ccc3c(C#CC4CCCC4)ncnc32)[C@H](O)[C@@H]1O [3.1g, 6-(Cydopentylethynyl)-9-β-D-ribofuranosyl-7-deazapurine] |  |  |  |  | 3.3 µM and 2.8 µM |  |  |  | 0.37 |  |  |  |  | 1.5 |  |  | 49 |  | > 8.4 | 6 | EC50 [1, 26]: > 100 µM; CC50 (HG23 Nov replicon cells): 25.8 µM; EC50 ([6]; Neutral Red (Cytopathic effect/Toxicity)): 3.8 µM; EC90 ([6]; Visual (Virus yield reduction)): 1.1 µM; activity against MERS-CoV in words (MERS-CoV (EMC strain)): moderately active with low selectivity index; CC50 (Huh7 cells; [27]): 8.6 µM; CC50 (Vero cells): 34 µM; EC50 [11]: 0.438 µM; EC50 [12, 28]: 0.86 µM and 1.3 µM; CC50 (Vero 76 cells; Visual): 100 µM
C[C@@]1(O)[C@H](O)[C@@H](CO)O[C@H]1n1cc(F)c2c(N)ncnc21 [7-fluoro-7-deaza-2′-C-methyladenosine] |  |  |  |  |  |  |  |  |  |  |  |  |  |  |  |  |  |  |  |  | EC50 (HCV): 0.07 µM
